Measured values reported in ChEMBL document CHEMBL1141005, “Modulation of PPAR receptor subtype selectivity of the ligands: aliphatic chain vs aromatic ring as a spacer between pharmacophore and the lipophilic moiety” (Bioorg Med Chem Lett, 2008).
Activity calls are given as the source filed them. No cut-off for these calls is given here.

Experiments:
[1] = molecular target: T1, Peroxisome proliferator-activated receptor delta (Homo sapiens) (UniProt Q03181); assay: Agonist activity at human PPARdelta transactivation expressed in human HePG2 cells up to 1 uM; type: functional, cell-based
T1 sequence (whole entry): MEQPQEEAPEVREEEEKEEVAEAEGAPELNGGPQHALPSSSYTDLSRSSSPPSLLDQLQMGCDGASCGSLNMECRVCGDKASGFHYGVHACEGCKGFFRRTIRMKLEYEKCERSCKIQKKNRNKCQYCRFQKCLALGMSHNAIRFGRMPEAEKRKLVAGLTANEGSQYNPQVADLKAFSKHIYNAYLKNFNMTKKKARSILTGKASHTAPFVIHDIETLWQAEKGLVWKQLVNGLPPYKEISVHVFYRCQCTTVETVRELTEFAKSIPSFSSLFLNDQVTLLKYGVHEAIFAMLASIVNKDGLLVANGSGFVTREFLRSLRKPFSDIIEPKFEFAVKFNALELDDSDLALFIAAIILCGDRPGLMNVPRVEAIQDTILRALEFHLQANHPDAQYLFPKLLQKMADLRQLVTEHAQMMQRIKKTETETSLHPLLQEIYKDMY

[2] = molecular target: T2, Peroxisome proliferator-activated receptor alpha (Homo sapiens) (UniProt Q07869); assay: Agonist activity at human PPARalpha transactivation expressed in human HePG2 cells up to1 uM; type: functional, cell-based
T2 sequence (whole entry): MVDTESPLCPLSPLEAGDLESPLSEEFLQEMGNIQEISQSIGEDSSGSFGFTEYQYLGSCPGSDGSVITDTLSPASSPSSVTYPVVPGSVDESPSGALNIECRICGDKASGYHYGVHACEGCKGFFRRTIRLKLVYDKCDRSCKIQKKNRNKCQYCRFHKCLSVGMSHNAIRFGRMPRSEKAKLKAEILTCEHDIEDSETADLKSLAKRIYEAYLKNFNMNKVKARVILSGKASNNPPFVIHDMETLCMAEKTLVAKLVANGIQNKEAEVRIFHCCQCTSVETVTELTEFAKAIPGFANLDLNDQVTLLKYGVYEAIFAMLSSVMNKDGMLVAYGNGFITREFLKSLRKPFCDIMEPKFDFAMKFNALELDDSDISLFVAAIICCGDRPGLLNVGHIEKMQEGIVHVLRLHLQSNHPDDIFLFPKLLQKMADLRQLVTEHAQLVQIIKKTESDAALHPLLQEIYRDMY

[3] = molecular target: T3, Peroxisome proliferator-activated receptor gamma (Homo sapiens) (UniProt P37231); assay: Agonist activity at human PPARgamma transactivation expressed in human HePG2 cells up to1 uM; type: functional, cell-based
T3 sequence (whole entry): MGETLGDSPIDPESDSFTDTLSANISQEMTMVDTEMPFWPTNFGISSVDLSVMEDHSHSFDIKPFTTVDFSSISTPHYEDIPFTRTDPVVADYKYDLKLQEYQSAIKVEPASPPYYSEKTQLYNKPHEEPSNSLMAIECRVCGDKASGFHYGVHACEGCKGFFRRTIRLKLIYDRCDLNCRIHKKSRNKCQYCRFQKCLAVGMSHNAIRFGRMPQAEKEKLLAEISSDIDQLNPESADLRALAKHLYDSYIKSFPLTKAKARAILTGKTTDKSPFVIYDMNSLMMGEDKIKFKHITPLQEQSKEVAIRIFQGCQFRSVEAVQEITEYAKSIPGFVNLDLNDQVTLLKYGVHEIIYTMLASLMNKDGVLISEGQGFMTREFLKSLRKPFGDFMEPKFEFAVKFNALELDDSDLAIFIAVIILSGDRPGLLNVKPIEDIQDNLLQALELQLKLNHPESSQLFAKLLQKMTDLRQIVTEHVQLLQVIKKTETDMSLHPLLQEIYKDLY

[4] = molecular target: T4, Peroxisome proliferator-activated receptor alpha (Homo sapiens, UniProt Q07869); assay: Agonist activity at human PPARalpha transactivation expressed in human HePG2 cells; type: functional, cell-based
T4 sequence (Q07869 whole entry): T2 sequence (whole entry)

[5] = molecular target: T5, Peroxisome proliferator-activated receptor gamma (Homo sapiens, UniProt P37231); assay: Agonist activity at human PPARgamma transactivation expressed in human HePG2 cells
T5 sequence (P37231 whole entry): T3 sequence (whole entry)

[6] = tested on: HpG2; assay: Selectivity ratio of EC50 for human PPARgamma receptor to human PPARalpha receptor expressed in human HpG2 cells; type: cell-based

Row | Activity [2] | Activity [3] | SMILES | Activity [1] | EC50 [4] [nM] | EC50 [5] [nM] | Ratio EC50 [6]
1 | inactive | inactive | COc1ccc(OC(=O)N(CCCCc2nc(-c3ccc(C)cc3)oc2C)CC(=O)O)cc1 | inactive |  |  | 
2 |  |  | Cc1oc(-c2ccccc2)nc1COc1ccc(CO/N=C(\CCC(=O)O)c2ccccc2)cc1 [IMIGLITAZAR] | inactive | 8 |  | 
3 |  |  | COc1ccc(OC(=O)N(CC(=O)O)Cc2ccc(OCCc3nc(-c4ccccc4)oc3C)cc2)cc1 [MURAGLITAZAR] | inactive | 150 |  | 
4 |  |  | Cc1ccc(-c2nc(CCCCCCO/N=C(/CCC(=O)O)c3ccccc3)c(C)o2)cc1 | inactive | 0.1 | 100 | 1000
5 |  |  | Cc1ccc(-c2nc(CCCC[C@H]3CO[C@@](C)(C(=O)O)OC3)c(C)o2)cc1 | inactive |  | 6850 | 
6 |  |  | COc1ccc(OC(=O)N(CCCCCCc2nc(-c3ccc(C)cc3)oc2C)CC(=O)O)cc1 | inactive | 34 | 450 | 13
7 |  |  | Cc1ccc(-c2nc(COc3ccc(C[C@H]4CO[C@@](C)(C(=O)O)OC4)cc3)c(C)o2)cc1 | inactive | 72 |  | 0.2
8 |  |  | COc1ccc(OC(=O)N(CCCCCc2coc(-c3ccc(C)cc3)n2)CC(=O)O)cc1 | inactive | 44 | 560 | 12
9 |  |  | Cc1ccc(-c2nc(CCCCO/N=C(\CCC(=O)O)c3ccccc3)c(C)o2)cc1 | inactive | 0.0038 | 430 | 113000
10 |  |  | Cc1ccc(-c2nc(CCCCCO/N=C(/CCC(=O)O)c3ccccc3)c(C)o2)cc1 | inactive | 2 | 31 | 15
